Assay results taken from US10632169B2, “Methods of using GM604 in modulating ALS disease biomarkers leading to prognosis and therapeutic treatment for ALS disease” (Genervon Biopharmaceuticals, LLC, priority 2015, dated 2020).
Residues, ends and D or L forms follow the SMILES beside them.

Columns and labels:
[1] = GALS-001 Phase 2A trial, safety and tolerability; type: in vivo, human
Procedure: A total of twelve patients were enrolled in the ALS Phase 2A study. Six subjects enrolled at Site 1 and six subjects enrolled at Site 2. Dosing was by slow bolus intravenous administration, once a day for 3 times a week for 2 weeks. Eight patients were randomized to receive 320 mg GM604 per dose and four patients to receive placebo. Our inclusion/exclusion criteria required the ALS patients in the Phase 2A trial to be “definite” ALS sufferers according to El Escorial criteria (i.e., the disease progression must involve upper and lower motoneuron and the bulbar region) who had experienced disease onset within 24 months prior to the beginning of the trial. The goal is to enroll fast progressing patients. Our dosing regimen was delivered via intravenous bolus dosing three times a week (Monday, Wednesday, Friday) for two consecutive weeks, for a total of 6 doses. There was no dosing after the two weeks' treatment, and the patients were followed and evaluated for the next ten weeks. The clinical data for the ALSFRS-R, FVC, TUG, and the Grip Strength and HHD were measured at Baseline, Week 2, Week 6, and Week 12.
1. Safety and tolerability were evaluated based on the results of adverse events, vital signs, electrocardiography (ECG) measurements, physical and neurological examinations, safety laboratory monitoring, and hypersensitivity and injection site reactions.

[2] = GALS-C compassionate use, clinical observations; type: in vivo, human; conditions: during the GALS-C trial
Source text: GALS Compassionate Use (GALS-C) A ALS patient was first diagnosed with the disease in Q1 2005 and by Q3 2008 was quadriplegic and on a ventilator. The FDA approved a compassionate-use application of the MNTF6mer known as GM604 for this patient (IND #120052) using a protocol that followed the Phase 2A trial. This program was thus dubbed GALS-C. GALS-C Study Design
8. Exploratory clinical outcome measures will include the rate of decline of the ALS Functional Rating Scale Revised (ALSFRS-R), Forced Vital Capacity (FVC), stabilization or improvement in any clonus or spasticity symptoms, speech, swallowing, drooling, lingual/oral muscle, improved time off vent (self-breathing) and any movement or increase movement of any muscle groups. To estimate the participant's rate of progression prior to treatment, an ALSFRS-R of 48 will be assumed at date of symptom onset. There will be 2 weeks of active treatment, followed by 10 weeks of assessment without active treatment.
This compassionate trial follows the similar protocol and same dosing regimen as in the Phase 2A ALS trial. […]
Since the compassionate patient was very advanced, the usual clinical evaluations such as ALS functional rating scale (ALSFRS), forced vital capacity (FVC), and muscle strength were not used. […] The initial CSF before dosing and the CSF sample after the 6th dose were collected and analyzed. […]

[3] = shown in U.S. Pat. No. 8,673,852; cited from earlier work
[4] = tested on: anterior horn motor neurons isolated from rat lumbar spinal cord explants; conditions: naturally occurring and recombinant MNTF1; U.S. Pat. No. 6,309,877; cited from earlier work
surviving motor neurons = conditions: in vivo administration; blocked by anti-MNTF1 monoclonal antibody; cited from earlier work

Compound | Headache, GM604-treated patients ([1]; 2 patients of 8) [%] | Puncture site pain, GM604-treated patients ([1]; 3 patients of 8) [%] | Falls, GM604-treated patients ([1]; 4 patients of 8) [%] | Patients with at least 1 Treatment-emergent adverse event (TEAE) ([1]; GM604 treatment group, placebo 4 out of 4) | Grade 1 hypersensitivity reactions ([1]; Visit 5, placebo 1 patient) [patient] | Clinical laboratory tests, hematology, urinalysis, ECGs, vital signs, physical and neurological findings vs placebo ([1]; changes over time) | QT or QTcB result ([1]; no GM604 patient above this value) [ms] | Rash, GM604-treated patients ([1]; of 8) [patients] | Serious adverse events (SAE) ([1]; patient 0203, shortness of breath, judged unrelated to the investigational product) | Deaths or withdrawals due to adverse events ([1]; whole study) | Adverse side effects [2] | Blood brain barrier penetration [3] | Survival in vitro of anterior horn motor neurons [4] | Percentage of surviving motor neurons vs untreated controls (surviving motor neurons)
C[C@H](NC(=O)[C@H](Cc1ccc(O)cc1)NC(=O)[C@H](CCCNC(=N)N)NC(=O)[C@H](CO)NC(=O)[C@@H](N)Cc1ccccc1)C(=O)N[C@@H](CCCNC(=N)N)C(=O)O [GM604, FSRYAR] (H-FSRYAR-OH) | 25 | 37.5 | 50 | 5 out of 8 | 1 | no clinically meaningful differences | ≤ 450 | 2 | 1 | No deaths or withdrawals due to adverse events occurred | no adverse side effects were noted | able to penetrate the blood brain barrier | – | –
MNTF1: motoneuronotrophic factor isolated from rat muscle tissues; recombinant MNTF1-F6 encodes a 33 amino acid sequence (SEQ ID NO:1) (LGTFWGDTLNCWMLSAFSRYARCLAEGHDGPTQ) | – | – | – | – | – | – | – | – | – | – | – | – | selectively enhance the survival | markedly higher percentage of surviving motor neurons
